Here are results for 87 compounds from PubChem BioAssay AID367 (MTDP, 2006).

“And” between values parts separate entries of the source, which are not always exact repeats. Equal values may be shown once. The source made the active and inactive calls. How the calls were made is not given here.

The target in the experiment is Gag-Pol polyprotein (Human immunodeficiency virus type 2 subtype A (isolate ROD)) (UniProt P04584). In words: Ribonuclease H inhibitors of HIV-2 reverse transcriptase, biochemical dose response (AID 367). Particulars: HIV-2 RNase H, FRET RNA/DNA substrate cleavage.
Sequence of Gag-Pol polyprotein (Human immunodeficiency virus type 2 subtype A (isolate ROD)) (P04584 whole entry, looked up): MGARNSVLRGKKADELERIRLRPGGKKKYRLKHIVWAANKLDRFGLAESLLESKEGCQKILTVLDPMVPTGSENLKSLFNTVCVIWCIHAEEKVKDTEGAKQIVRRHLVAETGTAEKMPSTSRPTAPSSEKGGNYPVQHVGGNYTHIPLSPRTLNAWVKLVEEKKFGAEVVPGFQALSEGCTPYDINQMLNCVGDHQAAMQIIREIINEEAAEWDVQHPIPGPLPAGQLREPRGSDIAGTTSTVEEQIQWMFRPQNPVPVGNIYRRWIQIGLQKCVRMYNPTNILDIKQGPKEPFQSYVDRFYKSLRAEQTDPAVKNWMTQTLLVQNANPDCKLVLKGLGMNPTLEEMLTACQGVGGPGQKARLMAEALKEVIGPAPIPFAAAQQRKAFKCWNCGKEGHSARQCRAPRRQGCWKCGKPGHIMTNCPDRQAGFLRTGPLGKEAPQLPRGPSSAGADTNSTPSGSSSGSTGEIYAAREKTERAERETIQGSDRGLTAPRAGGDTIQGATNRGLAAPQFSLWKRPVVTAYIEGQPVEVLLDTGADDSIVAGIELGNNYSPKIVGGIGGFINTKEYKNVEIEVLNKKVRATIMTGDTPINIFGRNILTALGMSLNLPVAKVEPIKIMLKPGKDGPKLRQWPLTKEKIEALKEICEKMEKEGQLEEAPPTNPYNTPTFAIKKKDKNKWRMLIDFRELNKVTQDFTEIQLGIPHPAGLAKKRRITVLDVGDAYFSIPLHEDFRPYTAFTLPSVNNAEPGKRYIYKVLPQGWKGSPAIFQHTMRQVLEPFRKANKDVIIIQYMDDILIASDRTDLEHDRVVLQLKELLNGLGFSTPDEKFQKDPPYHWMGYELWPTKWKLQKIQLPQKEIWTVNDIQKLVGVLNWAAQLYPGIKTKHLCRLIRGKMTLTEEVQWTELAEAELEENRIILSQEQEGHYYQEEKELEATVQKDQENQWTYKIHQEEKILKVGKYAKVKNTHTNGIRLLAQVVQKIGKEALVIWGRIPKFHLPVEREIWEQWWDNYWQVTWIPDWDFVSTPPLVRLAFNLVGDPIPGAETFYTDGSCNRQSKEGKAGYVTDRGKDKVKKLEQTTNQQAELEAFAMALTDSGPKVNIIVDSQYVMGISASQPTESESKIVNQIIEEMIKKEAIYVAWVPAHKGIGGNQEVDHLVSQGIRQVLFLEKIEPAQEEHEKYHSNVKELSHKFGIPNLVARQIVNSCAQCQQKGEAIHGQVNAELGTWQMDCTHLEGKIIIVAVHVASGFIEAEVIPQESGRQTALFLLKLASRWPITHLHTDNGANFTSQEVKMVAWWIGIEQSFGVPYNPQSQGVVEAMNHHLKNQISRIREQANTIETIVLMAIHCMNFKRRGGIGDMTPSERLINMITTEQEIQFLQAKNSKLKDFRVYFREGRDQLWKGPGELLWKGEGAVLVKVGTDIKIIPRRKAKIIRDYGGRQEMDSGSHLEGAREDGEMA

What is called IC50 is the concentration that gives 50% inhibition. With `COc1ccccc1NC(=O)c1c(NC(=O)Cc2ccccc2)sc2c1CCCCC2`, the IC50 was 8.5 µM.
In the case of `Cc1cc(=O)c2c(O)c3c(O)cc(O)c4c5c(O)cc(O)c6c(O)c7c(=O)cc(C)c8c1c2c(c34)c(c65)c78` it was “inactive”; in that of `CC(C)=CCC1=C(O)[C@@](O)(CC=C(C)C)C(=O)C(C(=O)CC(C)C)=C1O`, 2.8 µM.
The value for `COc1c(OC)c(O)c2c(=O)cc(-c3ccc(O)c(O)c3)oc2c1OC` was 3 µM; that for `CN(C)S(=O)(=O)c1ccc(Nc2ccc(O)c3c2C(=O)c2c([N+](=O)[O-])ccc(O)c2C3=O)cc1` was 8 µM.
Turning to `C[C@@H]1Oc2c3c(c4c(-c5ccccc5)cc(=O)oc4c2C(=O)[C@H]1C)OC(C)(C)C=C3`, the IC50 is 9.8 µM.
The value for `O=C1NC(=S)N(c2ccccc2F)C(=O)/C1=C/c1ccc(I)o1` was 4.9 µM; that for `COc1cc(/C=N\c2sc3c(c2C(=O)NCc2ccccc2)CCCC3)cc(Cl)c1O` was 2.8 µM.
The value for `NC(=O)c1c(NC(=O)COc2ccccc2)sc2c1CCCCC2` was 8 µM.
On to `COc1ccc(NC(=O)c2c(N)sc(-c3ccccc3)c2C)cc1`, for which the concentration for half-maximal inhibition (IC50) is 9 µM.
With `C[C@@H]1[C@H](O)c2c(c3c(c4c(-c5ccccc5)cc(=O)oc24)OC(C)(C)C=C3)O[C@@H]1C`, the IC50 result is “inactive”.
In the case of `O=C1NC(=S)N(c2ccccc2F)C(=O)C1=Cc1ccco1` it was 2.6 µM.
The value for `C=CCn1c(N)c(-c2nc3ccccc3[nH]2)sc1=S` was 3.9 µM; that for `Cc1cc(Br)ccc1N1C(=O)/C(=C/c2ccco2)C(=O)NC1=S` was 4 µM.
As to `Cc1sc(NC(=O)c2ccc(Br)o2)c(C(N)=O)c1C`, the IC50 was 7 µM.
In the case of `CC(=O)O[C@H](C)[C@@H]1C2=C(C(=O)C[C@]1(C)O)C(=O)c1c(ccc(-c3ccc4c(c3O)C(=O)C3=C(C4=O)[C@@H]([C@@H](C)OC(C)=O)[C@@](C)(O)CC3=O)c1O)C2=O`, the IC50 entry is “inactive”.
Consider `Cc1sc(NC(=O)c2ccc3c(c2)OCO3)c(C(N)=O)c1C`, for which the IC50 is 10 µM.
In the case of `Cc1c(O)c(Br)c(C)c(O)c1Br` (tested in a mixture with another compound) it was 0.7 µM; in that of `O=c1c(O)c(-c2ccc(O)c(O)c2)oc2cc(O)cc(O)c12`, 9 µM; in that of `Cc1cc(I)c2c(c1)C1C=CCC1C(C(=O)O)N2` (configuration not stated), > 100 µM (inactive).
The value for `CCOc1ccc(N2C(=O)/C(=C/c3ccc(Br)o3)C(=O)NC2=S)cc1` was 0.9 µM; that for `CC(C)c1ccc(O)c(O)c(=O)c1` (tested in a mixture with another compound) was 0.8 µM.
For `O=C1/C(=C/c2ccc(O)c(O)c2)SC(=S)N1C1CCCCC1`, the IC50 is 9.1 µM.
Turning to `O=C1C=CC2=C3c4cc(O)c(O)cc4CC3(O)COC2=C1O` (configuration not stated), the IC50 was 1.7 µM.
As for `Cc1sc(NC(=O)C2CC3CCC2C3)c(C(N)=O)c1C` (configuration not stated), the IC50 entry was “inactive”.
In the case of `O=C(N/N=C/c1ccccc1Cl)c1cc(O)c(O)c(O)c1`, the IC50 is 0.8 µM.
The value for `Cc1sc(NC(=O)c2ccco2)c(C(N)=O)c1C` was 5 µM.
In the case of `COc1ccc(-c2nc3sc(-c4ccc(OC)cc4)nc3s2)cc1` it was 2.9 µM.
In the case of `O=S(=O)(Nc1cccc(C(F)(F)F)c1)c1ccc2ccccc2c1` it was “inactive”; in that of `O=C(O)C1CCCCC1c1c2ccc(=O)c(O)c-2oc2c(O)c(O)ccc12` (configuration not stated), 0.6 µM; in that of `COc1ccc(C(=O)NC(=S)Nc2ccc3nn(-c4ccc(C)c(Cl)c4)nc3c2)cc1[N+](=O)[O-]`, 4.3 µM.
On to `O=C1NC(=S)N(c2ccccc2F)C(=O)/C1=C/c1ccc(OCc2cccc(C(=O)O)c2)cc1`, for which the IC50 is 9 µM.
The value for `Cc1ccc(C=C2C(=O)NC(=S)N(c3ccccc3Cl)C2=O)o1` was “inactive”; that for `N#C/C(=C\Nc1ccc(S(=O)(=O)Nc2nccs2)cc1)c1nc(-c2ccc(Cl)cc2)cs1` was 4.1 µM.
As to `Cc1cccc(NC(=O)c2c(NC(=O)c3ccc([N+](=O)[O-])cc3)sc3c2CCCC3)c1`, the IC50 is 2.7 µM.
Take `O=C(O)CCc1c2ccc(=O)c(O)c-2oc2c(O)c(O)ccc12`: the IC50 was 0.6 µM.
On to `O=C1C(Cl)=C/C(=N\S(=O)(=O)c2ccc(Cl)cc2)C(Cl)=C1Cl`, for which the IC50 was 1 µM.
Turning to `Cc1cc(C)c2c(=O)[nH]c(SCC(=O)c3ccc(O)c(O)c3)nc2n1`, the IC50 is 3 µM.
The value for `CCc1c(O)c2c(c(O)c1C(C)=O)C(=O)c1c(cc(O)c(C(=O)O)c1C(=O)O)C2=O` was 3.5 µM.
In the case of `Cc1cc(Cl)ccc1OCC(=O)Nc1sc(C)c(C)c1C(N)=O` it was “inactive”; in that of `N#Cc1c(NC(=O)C(F)(F)F)sc2c3c(=O)c4ccccc4c(=O)c=3oc3ccccc3c12`, “inactive”; in that of `O=C1C(Cl)=C/C(=N\S(=O)(=O)c2ccccc2)C(Cl)=C1Cl`, 0.9 µM.
The value for `O=[N+]([O-])c1ccc(S(=O)(=O)Cc2ccccc2)c2nonc12` was 5 µM; that for `C=C1C(=O)O[C@@H]2/C=C(\C)CC/C=C(\C(=O)O)CC/C=C(\C)CC[C@H]12` was 5.5 µM.
In the case of `C=CC1=C(C)C2=NC1=CC1=NC(=CC3=C(C)C4=C(O)C(C(=O)OC)C(=C5NC(=C2)C(C)C5CCC(=O)OC/C=C(\C)CCCC(C)CCCC(C)CCCC(C)C)C4=N3)C(CC)=C1C` (configuration not stated), the IC50 was > 100 µM (inactive).
For the compound `CC1Oc2cc3c(-c4c(O)cc(O)c5c(O)c6c(cc45)OC(C)C(C)C6=O)c(O)cc(O)c3c(O)c2C(=O)C1C` (configuration not stated), the IC50 is 8.2 µM.
The value for `CC1C2C=CC1C(c1c3ccc(=O)c(O)c-3oc3c(O)c(O)ccc13)C2C(=O)O` (configuration not stated) was 0.5 µM.
The value for `CC(C)=Cc1cc(CCC/C(C)=C/Cc2c(O)cc(C)c(C(=O)O)c2O)co1` was 5.7 µM; that for `Nc1nc(Sc2ccc([N+](=O)[O-])c3nonc23)c2[nH]cnc2n1` was “inactive”.
The value for `CCCc1cc(=O)oc2c3c(c4c(c12)OC(C)(C)C=C4)O[C@@H](C)[C@H](C)[C@@H]3F` was “inactive”; that for `Cc1ccc(C)n1-c1ccc(O)c(C(=O)O)c1` was 1.6 µM.
In the case of `O=C1C=C/C(=N\S(=O)(=O)c2cc(Cl)ccc2Cl)C=C1Cl`, the IC50 was 2 µM.
The value for `Cc1cc(-c2ccc(C=C3C(=O)NC(=S)NC3=O)o2)c([N+](=O)[O-])cc1C` was 7 µM.
The value for `O=C1C(Cl)=CC(=NS(=O)(=O)c2ccccc2)C=C1Cl` was 1 µM; that for `Oc1ccc(/C=N/Nc2nncc(-c3ccccc3)n2)c(O)c1O` was 1.1 µM.
In the case of `CC(C)OC(=O)c1cc(O)c(O)c(O)c1` it was 8 µM.
For the compound `O=C1c2ccccc2C(=O)N1c1ccc(-c2nc3ccc(N4C(=O)c5ccccc5C4=O)cc3[nH]2)cc1`, the IC50 is 1.7 µM.
As for `CN(C)CN1CSC(=S)N(CN(C)C)C1`, the IC50 is 2.8 µM.
As for `C=CCN1C(=O)/C(=C\c2ccc([N+](=O)[O-])o2)C(=O)NC1=S`, the IC50 result is “inactive”.
Consider `Cc1ccc(S(=O)(=O)/N=C2\C=CC(=O)C=C2Cl)cc1`, for which the IC50 was 2.1 µM.
Turning to `COc1cc(-c2[o+]c3cc(O)cc(O)c3cc2O)cc(O)c1O`, the IC50 was 4.1 µM and 3.1 µM.
In the case of `C=C/C(C)=C/C[C@]1(C)[C@H](C)CC[C@@]23C(=C[C@H](OC(=O)c4ccc(O)c(OC)c4)C[C@@H]12)[C@@H](OC(C)=O)O[C@H]3OC(C)=O` it was “inactive”; in that of `CC(C)=CCC/C(C)=C/Cc1cc(/C=C/c2cc(O)c(C/C=C(\C)CCC=C(C)C)c(O)c2)cc(O)c1O`, 8.2 µM; in that of `CC(C)=CCC(O)C1=CC(=O)c2c(O)ccc(O)c2C1=O` (configuration not stated), “inactive”.
As to `Oc1cc(O)c2cc(O)c(-c3ccc(O)c(O)c3)[o+]c2c1`, the IC50 was 0.8 µM.
As to `CC(C)c1ccc(O)c(=O)cc1`, the IC50 entry is “inactive”.
The value for `COc1cc(C)cc2c(-c3c(O)cc(O)c4c3C[C@@H](C)N[C@@H]4C)cc(-c3cc(-c4c(O)cc(O)c5c4C[C@@H](C)N[C@@H]5C)c4cc(C)cc(OC)c4c3O)c(O)c12` was 2.1 µM; that for `O=C1Nc2ccc(I)cc2C1(O)N1CCOCC1` (configuration not stated) was 6.3 µM.
As to `Nc1ccc(N=Nc2ccc(-c3ccc(O)cc3)cc2)c2ccc(S(=O)(=O)O)cc12`, the IC50 was 6.3 µM.
With `Cc1ccc(N2C(=O)/C(=C/c3ccc(O)c(O)c3)SC2=S)cc1C`, the IC50 was 4 µM.
The value for `O=S(=O)(O)c1cc(N=[N+]([O-])c2cc(S(=O)(=O)O)c3ccccc3c2)cc2ccccc12` was “inactive”.
The value for `Cc1ccc(-c2c(C#N)c(SCC(=O)c3ccc(O)c(O)c3)nc3c2CCCC3)o1` was 1.5 µM.
In the case of `Cc1ccc(NC(=O)c2c(NC(=O)C(F)(F)F)sc(-c3ccccc3)c2C)c(C)c1` it was 2 µM; in that of `O=C(O)/C=C/c1c2ccc(=O)c(O)c-2oc2c(O)c(O)ccc12`, 0.5 µM; in that of `FC(F)(F)c1nc2ccc(SSc3ccc4nc(C(F)(F)F)[nH]c4c3)cc2[nH]1`, 0.6 µM.
`O=[N+]([O-])c1c(Cl)cccc1-c1c[nH]cc1Cl`: the IC50 is > 100 µM (inactive).
In the case of `Nc1c(S(=O)(=O)O)cc(Nc2cccc(S(N)(=O)=O)c2)c2c1C(=O)c1ccccc1C2=O`, the IC50 is 4 µM.
In the case of `CCCc1cc(=O)oc2c3c(c4c(c12)OC(C)(C)C=C4)O[C@H](C)[C@@H](C)[C@H]3OC` it was “inactive”; in that of `NC(=O)c1c(NC(=O)CCc2ccccc2)sc2c1CCCCCC2`, 1.7 µM.
In the case of `CCOc1ccc(C2=CC(=O)C=CC2=O)cc1` it was 0.7 µM; in that of `O=C1NC(=O)/C(=C/c2ccc(-c3ccc(O)c(C(=O)O)c3)o2)S1`, 1 µM.
`O=c1[nH]c(=S)n(-c2ccccc2F)c(O)c1C=C1C=CC=N1`: the IC50 was 2.3 µM.
The value for `Cc1ccc(-n2c(/C=C/c3ccc(O)c(O)c3)nc3ccccc3c2=O)cc1` was 3.8 µM; that for `COC(=O)c1c(N)sc(C(=O)Nc2ccc(OC)cc2)c1C` was 4.3 µM; that for `O=C1O/C(=C(/C(=O)O)c2ccc(O)cc2)C(O)=C1c1cc2c3c(c(O)cc(C4=C(O)/C(=C(\C(=O)O)c5ccc(O)cc5)OC4=O)c3c1)OC2=O` was 1.4 µM.
Turning to `O=C(Nc1ccc(N2CCN(C(=O)c3ccccc3)CC2)cc1)c1ccc(-c2ccccc2)cc1`, the IC50 was 2.6 µM.
In the case of `COc1cccc2cc(C(N)=O)c(=O)oc12` it was 4.6 µM.
